Earlier results on 2 compounds are cited in patent publication US20110237609A1, “ANTIFOLATE COMPOSITIONS” (Chelsea Therapeutics, Inc., priority 2010, published 2011).

The conditions of data set [1]: in words; b190 refers to US 20090253720.
For data set [2] the following is noted: in words, background statement.

In the case of `C=C(CC(NC(=O)c1ccc(CCc2ccc3nc(N)nc(N)c3c2)cc1)C(=O)O)C(=O)O` (stereo not drawn), in data set [1], the solubility characteristics entry is recorded as “improved solubility characteristics in comparison to the dioic acid form”.

For the compound `C=C(CC(NC(=O)c1ccc(CCc2ccc3nc(N)nc(N)c3c2)cc1)C(=O)O)C(=O)O` (racemic) [compound of Formula (9), 2-{-4-[2-(2,4-diamino-quinazolin-6-yl)-ethyl]-benzoylamino}-4-methylene-pentanedioic acid], in data set [1], the solubility characteristics entry is “low solubility”. In addition, in data set [2], the bioavailability result is listed as “low bioavailability”.
